Experiments:
[1] = tested on: woodchuck hepatitis virus (WHV); test: Woodchuck model of chronic HBV infection (WHV DNA in serum); format: in vivo, woodchucks (Marmota monax)
Procedure: The efficacy of L-dA, L-dT and L-dC against hepadnavirus infection in woodchucks (Marmota monax) chronically infected with woodchuck hepatitis virus (WHV) was determined. This animal model of HBV infection is widely accepted and has proven to be useful for the evaluation of antiviral agents directed against HBV. Experimental groups (n=3 animals/drug group, n=4 animals/control) [table] Drugs were administered by oral gavage once daily, and blood samples taken on days 0, 1, 3, 7, 14, 21, 28, and on post-treatment days +1, +3, +7, +14, +28 and +56. Assessment of the activity and toxicity was based on the reduction of WHV DNA in serum: dot-blot, quantative PCR.

[2] = molecular target: T1, human DNA polymerase α (Homo sapiens, UniProt P09884); test: Inhibition of human DNA polymerase α (Dixon plot, calf thymus activated DNA, dATP); format: biochemical; details: calf thymus activated DNA as template-primer, dATP as substrate; read-out: DNA pol α Ki
T1 sequence (P09884 1-1462): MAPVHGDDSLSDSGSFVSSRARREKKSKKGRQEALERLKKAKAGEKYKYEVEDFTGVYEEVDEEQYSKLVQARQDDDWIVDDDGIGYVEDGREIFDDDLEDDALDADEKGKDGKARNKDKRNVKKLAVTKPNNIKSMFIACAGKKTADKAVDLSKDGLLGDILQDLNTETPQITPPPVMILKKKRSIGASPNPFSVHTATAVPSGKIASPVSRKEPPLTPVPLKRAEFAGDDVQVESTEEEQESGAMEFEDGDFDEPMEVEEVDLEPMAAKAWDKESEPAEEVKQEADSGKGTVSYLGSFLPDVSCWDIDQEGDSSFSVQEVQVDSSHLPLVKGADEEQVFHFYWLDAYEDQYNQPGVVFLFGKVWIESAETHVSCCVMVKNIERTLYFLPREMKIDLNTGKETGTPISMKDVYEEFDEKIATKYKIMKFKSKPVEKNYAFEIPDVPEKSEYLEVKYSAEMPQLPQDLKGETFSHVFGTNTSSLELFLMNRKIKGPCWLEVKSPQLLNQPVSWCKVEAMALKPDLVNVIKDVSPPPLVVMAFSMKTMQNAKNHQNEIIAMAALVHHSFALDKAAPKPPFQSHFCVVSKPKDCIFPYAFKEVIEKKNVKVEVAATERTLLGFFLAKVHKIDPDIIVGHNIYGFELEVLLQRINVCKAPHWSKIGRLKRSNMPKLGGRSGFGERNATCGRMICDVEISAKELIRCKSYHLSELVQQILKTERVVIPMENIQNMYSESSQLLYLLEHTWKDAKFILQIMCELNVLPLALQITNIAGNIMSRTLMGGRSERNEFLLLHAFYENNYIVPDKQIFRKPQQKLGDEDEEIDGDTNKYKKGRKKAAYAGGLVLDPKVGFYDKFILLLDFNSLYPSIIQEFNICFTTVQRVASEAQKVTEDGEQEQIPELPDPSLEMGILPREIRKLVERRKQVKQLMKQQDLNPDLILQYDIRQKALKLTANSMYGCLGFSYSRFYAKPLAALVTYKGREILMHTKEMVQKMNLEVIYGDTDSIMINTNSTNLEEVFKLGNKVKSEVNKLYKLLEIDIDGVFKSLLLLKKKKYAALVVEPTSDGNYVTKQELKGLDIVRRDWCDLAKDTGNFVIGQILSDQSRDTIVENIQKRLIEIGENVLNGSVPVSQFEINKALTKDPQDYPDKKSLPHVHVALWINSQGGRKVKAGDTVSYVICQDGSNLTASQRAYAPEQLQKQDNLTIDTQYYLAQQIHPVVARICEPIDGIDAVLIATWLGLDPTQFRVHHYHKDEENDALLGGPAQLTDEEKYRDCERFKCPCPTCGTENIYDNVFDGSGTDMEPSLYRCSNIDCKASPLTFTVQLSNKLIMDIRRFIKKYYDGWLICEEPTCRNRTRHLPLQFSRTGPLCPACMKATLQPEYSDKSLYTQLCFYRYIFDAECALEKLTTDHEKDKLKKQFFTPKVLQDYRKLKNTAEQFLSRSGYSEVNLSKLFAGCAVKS

[3] = molecular target: woodchuck hepatitis virus (WHV) DNA polymerase (Woodchuck hepatitis B virus, UniProt P03160); test: Inhibition of woodchuck hepatitis virus (WHV) DNA polymerase by triphosphates
[4] = molecular target: human DNA polymerase β (Homo sapiens, UniProt P06746); test: Inhibition of human DNA polymerase β (Dixon plot, calf thymus activated DNA, dATP); format: biochemical; details: calf thymus activated DNA as template-primer, dATP as substrate; read-out: DNA pol β Ki
[5] = molecular target: T2, human DNA polymerase γ (Homo sapiens, UniProt P54098); test: Inhibition of human DNA polymerase γ (Dixon plot, calf thymus activated DNA, dATP); format: biochemical; details: calf thymus activated DNA as template-primer, dATP as substrate; read-out: DNA pol γ Ki
T2 sequence (P54098 1-1239): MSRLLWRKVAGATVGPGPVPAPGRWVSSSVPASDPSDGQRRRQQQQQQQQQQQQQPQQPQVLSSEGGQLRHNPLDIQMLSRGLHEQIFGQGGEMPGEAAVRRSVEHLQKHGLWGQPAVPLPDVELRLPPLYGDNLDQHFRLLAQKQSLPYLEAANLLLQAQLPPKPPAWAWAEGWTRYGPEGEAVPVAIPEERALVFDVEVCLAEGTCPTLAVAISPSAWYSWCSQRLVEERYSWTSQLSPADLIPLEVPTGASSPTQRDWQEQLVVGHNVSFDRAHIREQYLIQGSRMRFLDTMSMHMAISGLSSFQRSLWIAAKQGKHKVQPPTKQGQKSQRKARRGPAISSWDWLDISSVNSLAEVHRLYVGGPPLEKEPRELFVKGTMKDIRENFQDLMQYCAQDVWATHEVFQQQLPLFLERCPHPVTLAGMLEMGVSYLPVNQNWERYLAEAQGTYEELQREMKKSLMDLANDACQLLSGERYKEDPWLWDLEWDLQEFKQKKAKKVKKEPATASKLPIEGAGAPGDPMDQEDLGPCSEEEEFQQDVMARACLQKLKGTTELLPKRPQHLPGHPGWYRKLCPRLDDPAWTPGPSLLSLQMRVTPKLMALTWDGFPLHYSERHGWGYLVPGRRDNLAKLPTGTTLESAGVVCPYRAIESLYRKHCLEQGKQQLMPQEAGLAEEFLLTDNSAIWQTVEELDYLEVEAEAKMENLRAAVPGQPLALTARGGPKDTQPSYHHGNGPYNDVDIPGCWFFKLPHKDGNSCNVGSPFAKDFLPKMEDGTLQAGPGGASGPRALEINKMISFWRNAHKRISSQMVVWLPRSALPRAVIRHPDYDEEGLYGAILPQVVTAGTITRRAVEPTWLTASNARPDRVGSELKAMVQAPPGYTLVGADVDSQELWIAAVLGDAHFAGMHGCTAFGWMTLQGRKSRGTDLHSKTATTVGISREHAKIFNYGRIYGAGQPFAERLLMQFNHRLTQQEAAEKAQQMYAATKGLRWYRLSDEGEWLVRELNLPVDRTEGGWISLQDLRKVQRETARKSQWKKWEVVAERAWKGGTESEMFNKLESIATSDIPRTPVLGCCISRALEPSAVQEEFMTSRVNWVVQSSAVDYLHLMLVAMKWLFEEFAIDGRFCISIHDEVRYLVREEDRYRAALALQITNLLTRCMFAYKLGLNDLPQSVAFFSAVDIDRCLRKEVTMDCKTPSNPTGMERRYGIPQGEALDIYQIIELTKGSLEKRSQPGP

Chain of woodchuck hepatitis virus (WHV) DNA polymerase (P03160 whole entry): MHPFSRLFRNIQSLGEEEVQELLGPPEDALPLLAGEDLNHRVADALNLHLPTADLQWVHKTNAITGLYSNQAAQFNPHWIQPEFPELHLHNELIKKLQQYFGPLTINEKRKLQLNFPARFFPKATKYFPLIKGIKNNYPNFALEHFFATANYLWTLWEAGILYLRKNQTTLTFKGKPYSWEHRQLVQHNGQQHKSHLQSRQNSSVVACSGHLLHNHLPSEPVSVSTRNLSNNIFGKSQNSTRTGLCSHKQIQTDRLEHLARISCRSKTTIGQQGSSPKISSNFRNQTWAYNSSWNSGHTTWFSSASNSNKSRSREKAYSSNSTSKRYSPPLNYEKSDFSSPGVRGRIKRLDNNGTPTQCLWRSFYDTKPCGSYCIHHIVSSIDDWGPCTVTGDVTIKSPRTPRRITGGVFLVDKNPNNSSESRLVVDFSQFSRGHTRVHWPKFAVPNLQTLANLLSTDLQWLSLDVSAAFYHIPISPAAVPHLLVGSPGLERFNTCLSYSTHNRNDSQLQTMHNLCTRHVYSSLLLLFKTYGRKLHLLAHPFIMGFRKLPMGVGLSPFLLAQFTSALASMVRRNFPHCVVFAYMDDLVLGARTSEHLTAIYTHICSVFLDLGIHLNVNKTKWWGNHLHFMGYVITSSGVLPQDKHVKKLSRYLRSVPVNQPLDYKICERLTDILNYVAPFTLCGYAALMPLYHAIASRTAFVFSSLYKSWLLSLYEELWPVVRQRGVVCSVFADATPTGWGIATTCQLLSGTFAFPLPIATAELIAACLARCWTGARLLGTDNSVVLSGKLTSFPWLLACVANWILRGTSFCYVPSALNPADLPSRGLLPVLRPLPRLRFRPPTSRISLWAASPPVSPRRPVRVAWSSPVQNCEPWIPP

Nc1ncnc2c1ncn2[C@@H]1C[C@@H](O)[C@H](CO)O1 [β-L-dA, 2′-Deoxy-β-L-adenosine]
activity compared with 3TC (lamivudine) [1]: more active than 3TC (lamivudine)
viral load reduced to (level) [1]: nearly undetectable

Nc1ncnc2c1ncn2[C@@H]1C[C@@H](O)[C@H](COP(=O)(O)OP(=O)(O)OP(=O)(O)O)O1 [β-L-dA-TP]
Ki [2]: > 100 µM
IC50 [3]: 2.3 µM
Ki [4]: > 100 µM

Nc1ccn([C@@H]2C[C@@H](O)[C@H](CO)O2)c(=O)n1 [β-L-dC, 2′-Deoxy-β-L-cytidine]
activity compared with 3TC (lamivudine) [1]: more active than 3TC (lamivudine)
viral load reduced to (level) [1]: nearly undetectable

Nc1ccn([C@@H]2C[C@@H](O)[C@H](COP(=O)(O)OP(=O)(O)OP(=O)(O)O)O2)c(=O)n1 [β-L-dC-TP]
Ki [5]: > 100 µM
Ki [2]: > 100 µM
IC50 [3]: 2 µM
Ki [4]: > 100 µM

Cc1cn([C@@H]2C[C@@H](O)[C@H](CO)O2)c(=O)[nH]c1=O [β-L-dT, 2′-Deoxy-β-L-Thymidine]
activity compared with 3TC (lamivudine) [1]: more active than 3TC (lamivudine)
viral load reduced to (level) [1]: undetectable
viral rebound after withdrawal ([1]; post-treatment): not detected for at least two weeks

Cc1cn([C@@H]2C[C@@H](O)[C@H](COP(=O)(O)OP(=O)(O)OP(=O)(O)O)O2)c(=O)[nH]c1=O [β-L-dT-TP]
Ki [5]: > 100 µM
Ki [2]: > 100 µM
IC50 [3]: 0.34 µM
Ki [4]: > 100 µM

O=c1ccn([C@@H]2C[C@@H](O)[C@H](COP(=O)(O)OP(=O)(O)OP(=O)(O)O)O2)c(=O)[nH]1 [β-L-dU-TP]
Ki [5]: > 100 µM
Ki [2]: > 100 µM
IC50 [3]: 8 µM
Ki [4]: > 100 µM

Reference: patent US6566344B1, “β-L-2′-deoxy-nucleosides for the treatment of hepatitis B” (priority 1998, dated 2003)
